This is an account of results in US20120053053A1, “PYRIMIDINE DERIVATIVES AND THEIR USE AS HERBICIDES” (SYNGENTA CROP PROTECTION, LLC, priority 2009, published 2012).

Common to all, as to type: in vivo
In experiment [1] the test system is Solanum nigrum (SOLNI). As to the kind of experiment: Pre-emergence biological efficacy (percentage damage). To be noted: dose 1,000 g/ha, evaluated after 13 days, 100=total damage, 0=no damage; for pest or weed control at 1000 g/ha: Solanum nigrum, 312 h. The gist of the method:
(§1)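 In this pre-emergence test, pots of standard soil sown with seed are treated after one day of glasshouse cultivation using compound formulated in acetone/water (50:50) containing 0.5% Tween 20, dosed at 250 or 1000 g/ha. Growth continues at 24/16 °C day/night with 14 h light and 65% humidity, and damage is rated after 13 days.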

Experiment [2] relates to Echinochloa crus-galli (ECHCG). The experiment is described as above. To be noted: dose 1,000 g/ha, evaluated after 13 days, 100=total damage, 0=no damage; for pest or weed control at 1000 g/ha: Echinochloa crus-galli, 312 h. The method in brief: as §1
Experiment [3] concerns Setaria faberi (SETFA). The description is as above. The note with it: dose 1,000 g/ha, evaluated after 13 days, 100=total damage, 0=no damage; for pest or weed control at 1000 g/ha: Setaria faberi, 312 h. The gist of the method: as §1
Experiment [4] relates to Amaranthus retoflexus (AMARE). The experiment is described as above. To be noted: dose 1,000 g/ha, evaluated after 13 days, 100=total damage, 0=no damage; for pest or weed control at 1000 g/ha: Amaranthus retroflexus, 312 h. The method in brief:
as §1

The test system of experiment [5] is Alopecurus myosuroides (ALOMY). Described as above. The note with it: dose 1,000 g/ha, evaluated after 13 days, 100=total damage, 0=no damage; for pest or weed control at 1000 g/ha: Alopecurus myosuroides, 312 h. The method in brief: as §1
The test system of experiment [6] is Ipomea hederaceae (IPOHE). The description is as above. The note with it: dose 1,000 g/ha, evaluated after 13 days, 100=total damage, 0=no damage; for pest or weed control at 1000 g/ha: Ipomoea hederacea, 312 h. The gist of the method: as §1
Experiment [7] relates to Solanum nigrum (SOLNI). Kind of experiment: Post-emergence biological efficacy (percentage damage). The note with it: dose 1,000 g/ha, evaluated after 13 days, 100=total damage, 0=no damage; for pest or weed control at 1000 g/ha: Solanum nigrum, 312 h. The method in brief: (§2)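 Seedlings grown 8 days in soil in a glasshouse (24/16 °C day/night, 14 h light, 65% humidity), then sprayed with compound in acetone/water (50:50) with 0.5% Tween 20 at 250 or 1000 g/ha. Damage scored visually after 13 days (0 = none, 100 = total).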

Experiment [8] has as its system Echinochloa crus-galli (ECHCG). Described as above. To be noted: dose 1,000 g/ha, evaluated after 13 days, 100=total damage, 0=no damage; for pest or weed control at 1000 g/ha: Echinochloa crus-galli, 312 h. The method in brief:
as §2

Experiment [9] relates to Setaria faberi (SETFA). Described as above. The note with it: dose 1,000 g/ha, evaluated after 13 days, 100=total damage, 0=no damage; for pest or weed control at 1000 g/ha: Setaria faberi, 312 h. The method in brief:
as §2

Experiment [10] deals with Amaranthus retoflexus (AMARE). Described as above. The note with it: dose 1,000 g/ha, evaluated after 13 days, 100=total damage, 0=no damage; for pest or weed control at 1000 g/ha: Amaranthus retroflexus, 312 h. The gist of the method: as §2
Experiment [11] deals with Alopecurus myosuroides (ALOMY). The experiment is described as above. To be noted: dose 1,000 g/ha, evaluated after 13 days, 100=total damage, 0=no damage; for pest or weed control at 1000 g/ha: Alopecurus myosuroides, 312 h. The gist of the method:
as §2

In experiment [12] the test system is Ipomea hederaceae (IPOHE). The description is as above. To be noted: dose 1,000 g/ha, evaluated after 13 days, 100=total damage, 0=no damage; for pest or weed control at 1000 g/ha: Ipomoea hederacea, 312 h. The gist of the method: as §2

`C=Cc1c(N)nc(-c2ccc(Cl)c(N(C)C)c2F)nc1C(=O)OCC(C)C` [Compound 33-326, 4-Amino-2-(4-chloro-3-dimethylamino-2-fluorophenyl)-5-ethenyl-6-(2-methylpropoxy) carbonyl-pyrimidine]: the pest or weed control at 1000 g/ha in experiment [1] was 60%; in experiment [2] it was 40%; in [3], 20%; in experiment [4], 60%; in experiment [5] it was 20%; in experiment [6] it was 10%. Further, the pest or weed control at 1000 g/ha in [7] came to 90%; in [8], 80%; in experiment [9] it was 40%; in experiment [10], 100%; in [11] it was 20%; in experiment [12] it was 50%.
Consider `C=Cc1c(N)nc(-c2ccc(Cl)c(N(C)C)c2F)nc1C(=O)OCc1ccccc1` [Compound 33-336, 4-Amino-2-(4-chloro-3-dimethylamino-2-fluorophenyl)-5-ethenyl-6-phenylmethoxy-carbonyl-pyrimidine], for which the pest or weed control at 1000 g/ha in [1] amounted to 80%; in [2], 90%; in [3], 80%; in experiment [4], 100%; in [5], 70%; in [6], 20%. Further, the pest or weed control at 1000 g/ha in experiment [7] turned out to be 90%; in experiment [8], 90%; in experiment [9] it was 90%; in [10], 100%; in [11], 90%; in [12], 40%.
Consider `C=Cc1c(N)nc(-c2ccc(Cl)c(N(C)C)c2F)nc1C(=O)OCCCC` [Compound 33-391], for which the pest or weed control at 1000 g/ha in [1] was determined as 100%; in [2] it was 100%; in experiment [3], 90%; in experiment [4], 100%; in [5], 70%; in experiment [6] it was 20%. The pest or weed control at 1000 g/ha worked out at 80% in experiment [7]; 90% in experiment [8]; 90% in [9]; 100% in [10]; 70% in [11]; 80% in experiment [12].
`C=Cc1c(N)nc(-c2ccc(Cl)c(N(C)C)c2F)nc1C(=O)OCCCCCCCC` [Compound 33-392]: the “Percentage damage SOLNI, pre-emergence” value in experiment [1] was found to be 80%. In addition, the “Percentage damage ECHCG, pre-emergence” value in experiment [2] was 100%. For the same compound, the “Percentage damage SETFA, pre-emergence” value in [3] is given as 90%. Besides, the “Percentage damage AMARE, pre-emergence” value in experiment [4] turned out to be 100%. Further, in experiment [5], the “Percentage damage ALOMY, pre-emergence” value amounted to 70%. Moreover, the “Percentage damage IPOHE, pre-emergence” value in [6] worked out at 0%. Also, in experiment [7], the “Percentage damage SOLNI, post-emergence” value stood at 90%. The “Percentage damage ECHCG, post-emergence” value in experiment [8] is 80%. In experiment [9], the “Percentage damage SETFA, post-emergence” value came to 60%. Besides, the “Percentage damage AMARE, post-emergence” value in [10] is 100%. Further, the “Percentage damage ALOMY, post-emergence” value in experiment [11] was 70%. Further, the “Percentage damage IPOHE, post-emergence” value in experiment [12] is 80%.
With `C=Cc1c(N)nc(-c2ccc(Cl)c(N(C)C)c2F)nc1C(=O)OCC(CC)CCCC` (stereo not drawn) [Compound 33-393, 4-Amino-2-(4-chloro-3-dimethylamino-2-fluorophenyl)-5-ethenyl-6-(2-ethylhexyloxy) carbonyl-pyrimidine], the pest or weed control at 1000 g/ha in [1] worked out at 20%; in experiment [2], 0%; in experiment [3] it was 0%; in [4], 20%; in [5] it was 0%; in [6] it was 0%. Also, the pest or weed control at 1000 g/ha in [7] is 70%; in experiment [8], 20%; in experiment [9] it was 0%; in [10], 70%; in [11] it was 0%; in experiment [12] it was 70%.
For the compound `C=Cc1c(N)nc(-c2ccc(Cl)c(N(C)C)c2F)nc1C(=O)OC(C)c1ccccc1` (stereo not drawn) [Compound 33-394, 4-Amino-2-(4-chloro-3-dimethylamino-2-fluorophenyl)-5-ethenyl-6-(1-phenyl-ethoxy)carbonyl-pyrimidine], the pest or weed control at 1000 g/ha was 40% in experiment [1]; 30% in [2]; 30% in [3]; 40% in experiment [4]; 20% in [5]; 0% in [6]. Besides, the pest or weed control at 1000 g/ha was found to be 80% in [7]; 60% in experiment [8]; 50% in [9]; 100% in [10]; 30% in experiment [11]; 30% in experiment [12].
With `C=CCOC(=O)c1nc(-c2ccc(Cl)c(N(C)C)c2F)nc(N)c1C=C` [Compound 33-395, 4-Amino-2-(4-chloro-3-dimethylamino-2-fluorophenyl)-5-ethenyl-6-(prop-2-enyloxy)carbonyl-pyrimidine], the pest or weed control at 1000 g/ha in [1] was found to be 100%; in experiment [2] it was 90%; in experiment [3], 80%; in [4] it was 100%; in [5], 60%; in [6], 30%. In addition, the pest or weed control at 1000 g/ha in experiment [7] came to 100%; in experiment [8], 100%; in [9], 100%; in experiment [10], 100%; in experiment [11], 70%; in experiment [12] it was 30%.
`C=Cc1c(N)nc(-c2ccc(Cl)c(N(C)C)c2F)nc1C(=O)OCCOCC` [Compound 33-396, 4-Amino-2-(4-chloro-3-dimethylamino-2-fluorophenyl)-5-ethenyl-6-(2-ethoxy-ethoxy)carbonyl-pyrimidine]: the pest or weed control at 1000 g/ha stood at 90% in experiment [1]; 90% in [2]; 80% in experiment [3]; 100% in experiment [4]; 70% in experiment [5]; 50% in experiment [6]. For the same compound, the pest or weed control at 1000 g/ha in [7] came out at 90%; in experiment [8], 100%; in experiment [9], 90%; in experiment [10], 100%; in experiment [11], 70%; in experiment [12] it was 60%.
Consider `C=Cc1c(N)nc(-c2ccc(Cl)c(N(C)C)c2F)nc1C(=O)OCCOCCCC` [Compound 33-397], for which the pest or weed control at 1000 g/ha in experiment [1] turned out to be 100%; in experiment [2], 100%; in [3], 90%; in experiment [4], 100%; in [5] it was 80%; in experiment [6], 50%. Besides, the pest or weed control at 1000 g/ha in experiment [7] amounted to 90%; in experiment [8], 90%; in experiment [9], 90%; in experiment [10] it was 100%; in experiment [11], 80%; in experiment [12] it was 80%.
Take `C=Cc1c(N)nc(-c2ccc(F)cc2)nc1C(=O)OC` [Compound 41-61, 4-Amino-5-ethenyl-2-(4-fluorophenyl)-6-methoxycarbonyl-pyrimidine]: the pest or weed control at 1000 g/ha in experiment [1] was 0%; in experiment [2], 10%; in experiment [3] it was 10%; in experiment [4], 100%; in experiment [5], 20%; in [6], 40%. Besides, the pest or weed control at 1000 g/ha was 90% in [7]; 10% in experiment [8]; 10% in [9]; 100% in experiment [10]; 20% in [11]; 60% in experiment [12].

As usually defined, the pest or weed control is how far the test organism was held down. A low value points to weak suppression.
